Assay results as given in patent US6596749B2, “Aminotriazole compounds” (Les Laboratoires Servier, priority 1999, dated 2003).
pIC50: −log10 of the molar value.

Tests used:
[1] = test system: obese ob/ob mouse; experiment: Effect on food intake and weight development in the obese mouse; assay type: in vivo; conditions: female ob/ob C57B1/6J mice; for Food intake % variation (D1), Treated: D1, compared with the basal food intake; for Body weight % variation (D4/D0): between first and last day of treatment
Protocol: The compounds of the invention were administered in vivo to the obese ob/ob mouse in order to evaluate their influence on food intake and weight development. The animals used are 13- to 18-week-old female ob/ob C57B1/6J mice. They are divided into groups each comprising 4 animals per cage, the cages being fitted with a grating floor, and the mice having free access to food.
Before the experiments, the animals are conditioned for a period ranging from 2 to 3 weeks until their food consumption has stabilised. The experiments may be summarised as follows:
The test compounds are dissolved, immediately before use, in water, 0.9% sodium chloride, propylene glycol or dimethyl sulphoxide, depending upon their solubility, and are administered intraperitoneally (IP), in a volume of 2.5 ml/kg.
The parameters measured are the food intake and the body weight.
The results are expressed as: […]
percentage variation in food intake under treatment compared with the basal food intake;
percentage variation in body weight between the first and last day of treatment.

[2] = target: T1, Y5 receptor (Homo sapiens, UniProt Q15761); experiment: In vitro affinity for NPY receptors, [125I]-PYY competition binding, Y5 receptor; conditions: radioligand [125I]-PYY 15 to 65 pM
T1 sequence (Q15761 1-445): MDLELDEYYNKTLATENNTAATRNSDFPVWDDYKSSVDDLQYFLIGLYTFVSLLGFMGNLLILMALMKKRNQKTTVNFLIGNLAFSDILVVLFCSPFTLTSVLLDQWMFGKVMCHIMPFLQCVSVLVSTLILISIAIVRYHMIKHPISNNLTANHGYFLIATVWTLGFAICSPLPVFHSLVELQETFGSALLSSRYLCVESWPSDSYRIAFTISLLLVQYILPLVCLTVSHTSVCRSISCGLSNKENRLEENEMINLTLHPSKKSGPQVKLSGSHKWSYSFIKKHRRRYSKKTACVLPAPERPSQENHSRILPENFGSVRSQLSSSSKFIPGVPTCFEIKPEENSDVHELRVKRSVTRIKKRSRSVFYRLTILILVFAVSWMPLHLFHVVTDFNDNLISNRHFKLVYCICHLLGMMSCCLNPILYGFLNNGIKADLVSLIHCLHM
Protocol: The capacity of the compounds of the invention to bind to NPY receptors was measured on various cell lines, each expressing one of the receptor sub-types studied. Competition binding experiments were carried out using the peptide [^125I]-PYY as radioligand at concentrations ranging from 15 to 65 pM. The non-specific fraction is measured in the presence of a concentration of 1 μM NPY. The cells are incubated for a period ranging from 1 to 2 hours depending upon the lines, and the radioactivity is collected after filtration over a GF/C filter treated with 0.1% PEI, before being measured.

| pIC50 [2] | SMILES | Food intake % variation (D1), Treated ([1]; 1 mg/kg IP twice daily) [%] | Body weight % variation (D4/D0) ([1]; 1 mg/kg IP twice daily) [%] | Food intake % variation (D1), Treated ([1]; 5 mg/kg IP twice daily) [%] | Body weight % variation (D4/D0) ([1]; 5 mg/kg IP twice daily) [%] |
| --- | --- | --- | --- | --- | --- |
| 7.10 | O=C(NNS(=O)(=O)c1ccccc1)c1ccc(Nc2nc(-c3ccccc3)n(-c3cccc(C(F)(F)F)c3)n2)cc1 [Example 1, N′-[4-({5-Phenyl-1-[3-(trifluoromethyl)phenyl]-1H-1,2,4-triazol-3-yl}-amino)benzoyl]benzenesulphonohydrazide] | −45 | −6.4 |  |  |
| 8.15 | COc1ccc(S(=O)(=O)NNC(=O)c2ccc(Nc3nc(-c4ccccc4)n(-c4cccc(C(F)(F)F)c4)n3)cc2)cc1 [Example 6] |  |  | −34 | −11.2 |
